From the NIST ThermoML archive (doi:10.1016/j.fluid.2010.10.028)

Test: xn = mol fraction of the nth substance listed
Conditions: Liquid, Vibrating tube method

CC(C)=O [acetone] + CCCCCCC
Conditions	mass density [kg/m3]
347.61 K, 99820 kPa, x1 = 0.7024	766.18
347.61 K, 104810 kPa, x1 = 0.7024	768.98
347.61 K, 109800 kPa, x1 = 0.7024	771.73
347.61 K, 114810 kPa, x1 = 0.7024	774.41
347.61 K, 119820 kPa, x1 = 0.7024	777.02
347.61 K, 124830 kPa, x1 = 0.7024	779.56
347.61 K, 129810 kPa, x1 = 0.7024	782.01
347.62 K, 1020 kPa, x1 = 0.801	689
347.62 K, 1220 kPa, x1 = 0.4	705.05
347.62 K, 1220 kPa, x1 = 0.8992	705.05
347.62 K, 4860 kPa, x1 = 0.801	695.13
347.62 K, 5030 kPa, x1 = 0.4	711.05
347.62 K, 5030 kPa, x1 = 0.8992	711.05
347.62 K, 9870 kPa, x1 = 0.801	702.45
347.62 K, 10010 kPa, x1 = 0.4	718.22
347.62 K, 10010 kPa, x1 = 0.8992	718.22
347.62 K, 14850 kPa, x1 = 0.801	709.08
347.62 K, 15000 kPa, x1 = 0.4	724.83
347.62 K, 15000 kPa, x1 = 0.8992	724.83
347.62 K, 19850 kPa, x1 = 0.801	715.23
347.62 K, 24850 kPa, x1 = 0.801	720.94
347.62 K, 29860 kPa, x1 = 0.801	726.31
347.62 K, 34950 kPa, x1 = 0.4	746.98
347.62 K, 34950 kPa, x1 = 0.8992	746.98
347.62 K, 39850 kPa, x1 = 0.801	736.15
347.62 K, 39940 kPa, x1 = 0.4	751.76
347.62 K, 39940 kPa, x1 = 0.8992	751.76
347.62 K, 44930 kPa, x1 = 0.4	756.3
347.62 K, 44930 kPa, x1 = 0.8992	756.3
347.62 K, 49910 kPa, x1 = 0.4	760.61
347.62 K, 49910 kPa, x1 = 0.8992	760.61
347.62 K, 54840 kPa, x1 = 0.801	749.08
347.62 K, 54890 kPa, x1 = 0.4	764.72
347.62 K, 54890 kPa, x1 = 0.8992	764.72
347.62 K, 59880 kPa, x1 = 0.4	768.69
347.62 K, 59880 kPa, x1 = 0.8992	768.69
347.62 K, 64870 kPa, x1 = 0.4	772.47
347.62 K, 64870 kPa, x1 = 0.8992	772.47
347.62 K, 69850 kPa, x1 = 0.4	776.15
347.62 K, 69850 kPa, x1 = 0.8992	776.15
347.62 K, 74830 kPa, x1 = 0.4	779.64
347.62 K, 74830 kPa, x1 = 0.8992	779.64
347.62 K, 74890 kPa, x1 = 0.801	763.9
347.62 K, 79820 kPa, x1 = 0.4	783.06
347.62 K, 79820 kPa, x1 = 0.8992	783.06
347.62 K, 79870 kPa, x1 = 0.801	767.26
347.62 K, 84800 kPa, x1 = 0.4	786.42
347.62 K, 84800 kPa, x1 = 0.8992	786.42
347.62 K, 89780 kPa, x1 = 0.4	789.6
347.62 K, 89780 kPa, x1 = 0.8992	789.6
347.62 K, 94760 kPa, x1 = 0.4	792.68
347.62 K, 94760 kPa, x1 = 0.8992	792.68
347.62 K, 99740 kPa, x1 = 0.4	795.68
347.62 K, 99740 kPa, x1 = 0.8992	795.68
347.62 K, 99810 kPa, x1 = 0.801	779.62
347.62 K, 104710 kPa, x1 = 0.4	798.57
347.62 K, 104710 kPa, x1 = 0.8992	798.57
347.62 K, 109700 kPa, x1 = 0.4	801.41
347.62 K, 109700 kPa, x1 = 0.8992	801.41
347.62 K, 114660 kPa, x1 = 0.4	804.17
347.62 K, 114660 kPa, x1 = 0.8992	804.17
347.62 K, 119630 kPa, x1 = 0.4	806.86
347.62 K, 119630 kPa, x1 = 0.8992	806.86
347.62 K, 124610 kPa, x1 = 0.4	809.5
347.62 K, 124610 kPa, x1 = 0.8992	809.5
347.62 K, 124830 kPa, x1 = 0.801	793.29
347.62 K, 129570 kPa, x1 = 0.4	812.05
347.62 K, 129570 kPa, x1 = 0.8992	812.05
347.63 K, 1030 kPa, x1 = 0.492	657.71
347.63 K, 1030 kPa, x1 = 0.611	666.96
347.63 K, 4850 kPa, x1 = 0.492	663.76
347.63 K, 4870 kPa, x1 = 0.611	673.09
347.63 K, 9850 kPa, x1 = 0.492	670.93
347.63 K, 9870 kPa, x1 = 0.611	680.36
347.63 K, 14850 kPa, x1 = 0.492	677.45
347.63 K, 19850 kPa, x1 = 0.492	683.45
347.63 K, 19980 kPa, x1 = 0.4	730.92
347.63 K, 19980 kPa, x1 = 0.8992	730.92
347.63 K, 24860 kPa, x1 = 0.492	689
347.63 K, 24960 kPa, x1 = 0.4	736.6
347.63 K, 24960 kPa, x1 = 0.8992	736.6
347.63 K, 29860 kPa, x1 = 0.492	694.2
347.63 K, 29960 kPa, x1 = 0.4	741.95
347.63 K, 29960 kPa, x1 = 0.8992	741.95
347.63 K, 34850 kPa, x1 = 0.492	699.05
347.63 K, 34850 kPa, x1 = 0.801	731.37
347.63 K, 39860 kPa, x1 = 0.492	703.65
347.63 K, 44850 kPa, x1 = 0.801	740.65
347.63 K, 44870 kPa, x1 = 0.492	708.02
347.63 K, 49830 kPa, x1 = 0.492	712.11
347.63 K, 49850 kPa, x1 = 0.801	744.95
347.63 K, 54850 kPa, x1 = 0.492	716.07
347.63 K, 59840 kPa, x1 = 0.801	752.99
347.63 K, 59850 kPa, x1 = 0.492	719.82
347.63 K, 64820 kPa, x1 = 0.801	756.73
347.63 K, 64830 kPa, x1 = 0.492	723.43
347.63 K, 64920 kPa, x1 = 0.611	733.74
347.63 K, 69910 kPa, x1 = 0.801	760.44
347.63 K, 69920 kPa, x1 = 0.611	737.26
347.63 K, 69930 kPa, x1 = 0.492	726.98
347.63 K, 74910 kPa, x1 = 0.492	730.29
347.63 K, 79900 kPa, x1 = 0.492	733.48
347.63 K, 84860 kPa, x1 = 0.801	770.5
347.63 K, 84880 kPa, x1 = 0.492	736.56
347.63 K, 89840 kPa, x1 = 0.801	773.63
347.63 K, 89860 kPa, x1 = 0.492	739.56
347.63 K, 94820 kPa, x1 = 0.801	776.66
347.63 K, 104780 kPa, x1 = 0.801	782.49
347.63 K, 104800 kPa, x1 = 0.492	747.95
347.63 K, 109760 kPa, x1 = 0.611	761.37
347.63 K, 109760 kPa, x1 = 0.801	785.29
347.63 K, 109770 kPa, x1 = 0.492	750.58
347.63 K, 114860 kPa, x1 = 0.801	788.08
347.63 K, 119840 kPa, x1 = 0.801	790.72
347.63 K, 124840 kPa, x1 = 0.492	758.13
347.63 K, 124840 kPa, x1 = 0.611	769.09
347.63 K, 129860 kPa, x1 = 0.492	760.49
347.63 K, 129860 kPa, x1 = 0.801	795.81
347.64 K, 14870 kPa, x1 = 0.611	686.95
347.64 K, 19860 kPa, x1 = 0.611	693.03
347.64 K, 24870 kPa, x1 = 0.611	698.69
347.64 K, 29860 kPa, x1 = 0.611	703.93
347.64 K, 34870 kPa, x1 = 0.611	708.89
347.64 K, 39870 kPa, x1 = 0.611	713.55
347.64 K, 44850 kPa, x1 = 0.611	717.99
347.64 K, 49850 kPa, x1 = 0.611	722.19
347.64 K, 54850 kPa, x1 = 0.611	726.18
347.64 K, 59940 kPa, x1 = 0.611	730.09
347.64 K, 74910 kPa, x1 = 0.611	740.63
347.64 K, 79900 kPa, x1 = 0.611	743.88
347.64 K, 84880 kPa, x1 = 0.611	747.05
347.64 K, 89870 kPa, x1 = 0.611	750.1
347.64 K, 94840 kPa, x1 = 0.611	753.04
347.64 K, 94850 kPa, x1 = 0.492	742.44
347.64 K, 99820 kPa, x1 = 0.492	745.23
347.64 K, 99820 kPa, x1 = 0.611	755.91
347.64 K, 104780 kPa, x1 = 0.611	758.67
347.64 K, 114850 kPa, x1 = 0.492	753.18
347.64 K, 114870 kPa, x1 = 0.611	764.04
347.64 K, 119840 kPa, x1 = 0.611	766.59
347.64 K, 119860 kPa, x1 = 0.492	755.69
347.64 K, 129860 kPa, x1 = 0.611	771.5
357.54 K, 1050 kPa, x1 = 0.7024	664.83
357.54 K, 4810 kPa, x1 = 0.7024	671.47
357.54 K, 9820 kPa, x1 = 0.7024	679.43
357.54 K, 14810 kPa, x1 = 0.7024	686.58
357.54 K, 14860 kPa, x1 = 0.611	677.52
357.54 K, 19810 kPa, x1 = 0.7024	693.14
357.54 K, 24800 kPa, x1 = 0.7024	699.18
357.54 K, 29900 kPa, x1 = 0.7024	704.93
357.54 K, 34880 kPa, x1 = 0.7024	710.21
357.54 K, 39870 kPa, x1 = 0.7024	715.16
357.54 K, 44860 kPa, x1 = 0.7024	719.83
357.54 K, 49860 kPa, x1 = 0.7024	724.29
357.54 K, 54850 kPa, x1 = 0.7024	728.52
357.54 K, 59830 kPa, x1 = 0.7024	732.55
357.54 K, 64830 kPa, x1 = 0.7024	736.42
357.54 K, 69820 kPa, x1 = 0.7024	740.13
357.54 K, 74790 kPa, x1 = 0.7024	743.68
357.54 K, 84760 kPa, x1 = 0.7024	750.39
357.54 K, 94820 kPa, x1 = 0.7024	756.74
357.55 K, 1070 kPa, x1 = 0.611	655.88
357.55 K, 1080 kPa, x1 = 0.492	647.12
357.55 K, 1300 kPa, x1 = 0.4	692.98
357.55 K, 1300 kPa, x1 = 0.8992	692.98
357.55 K, 4850 kPa, x1 = 0.492	653.64
357.55 K, 4860 kPa, x1 = 0.611	662.51
357.55 K, 5030 kPa, x1 = 0.4	699.4
357.55 K, 5030 kPa, x1 = 0.8992	699.4
357.55 K, 9850 kPa, x1 = 0.492	661.43
357.55 K, 9860 kPa, x1 = 0.611	670.41
357.55 K, 10030 kPa, x1 = 0.4	707.18
357.55 K, 10030 kPa, x1 = 0.8992	707.18
357.55 K, 14850 kPa, x1 = 0.492	668.43
357.55 K, 15010 kPa, x1 = 0.4	714.27
357.55 K, 15010 kPa, x1 = 0.8992	714.27
357.55 K, 19840 kPa, x1 = 0.492	674.79
357.55 K, 19870 kPa, x1 = 0.611	684.02
357.55 K, 20010 kPa, x1 = 0.4	720.81
357.55 K, 20010 kPa, x1 = 0.8992	720.81
357.55 K, 24840 kPa, x1 = 0.492	680.72
357.55 K, 24850 kPa, x1 = 0.611	689.97
